Values quoted from earlier work as cited in US9114107B2, “Compositions for inhibiting virus entry and promoting virolysis, and methods thereof” (priority 2010, dated 2015).

System: virus challenge
Details: cited from earlier work

COc1ccnc2[nH]cc(C(=O)C(=O)N3CCN(C(=O)c4ccccc4)C[C@H]3C)c12 [BMS-806, (R)-1-(4-benzoyl-2-methylpiperazin-1-yl)-2-(4-methoxy-1H-pyrrolo[2,3-b]pyridin-3-yl)ethane-1,2-dione]
local irritation or inflammation of macaque vagina (biopsy after multiple applications): No local irritation or inflammation was observed | animals protected (macaques challenged with virus 2-6 hours after application): 3 of 5
